Source: PubChem BioAssay (NCI)
Several values for one entry are separate records, joined by “and”; a condition that tells them apart may be missing. Identical values can stand only once.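 Where inhibition never reached the appropriate level, the endpoint shown equals the highest concentration tested. Otherwise, values were interpolated linearly from a five-concentration, 48-hour dose response in 96-well plates. At the GI50, growth is halved. TGI: total growth inhibition.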

Experiments:
Experiment in all cases: growth of human tumour cells (NCI), 48 h
OVCAR-5 ovarian = system: OVCAR-5 ovarian
TK-10 renal = system: TK-10 renal
K-562 leukemia = system: K-562 leukemia
SF-295 CNS = system: SF-295 CNS
EKVX NSCLC = system: EKVX NSCLC
786-0 renal = system: 786-0 renal
HCC-2998 colon = system: HCC-2998 colon
NCI-H226 lung = system: NCI-H226 lung
MDA-MB-231 breast = system: MDA-MB-231 breast
NCI-H23 lung = system: NCI-H23 lung
RPMI-8226 leukemia = system: RPMI-8226 leukemia

| Structure (SMILES) | TGI (OVCAR-5 ovarian) | TGI (TK-10 renal) | TGI (K-562 leukemia) | TGI (SF-295 CNS) | TGI (EKVX NSCLC) | TGI (786-0 renal) | TGI (HCC-2998 colon) | TGI (NCI-H226 lung) | TGI (MDA-MB-231 breast) | TGI (NCI-H23 lung) | TGI (RPMI-8226 leukemia) | GI50 (OVCAR-5 ovarian) | GI50 (TK-10 renal) | GI50 (K-562 leukemia) | GI50 (SF-295 CNS) | GI50 (EKVX NSCLC) | GI50 (HCC-2998 colon) | GI50 (MDA-MB-231 breast) | GI50 (NCI-H23 lung) | GI50 (RPMI-8226 leukemia) |
| --- | --- | --- | --- | --- | --- | --- | --- | --- | --- | --- | --- | --- | --- | --- | --- | --- | --- | --- | --- | --- |
| C[N+]1(CCCCN2c3ccccc3Sc3cc(N=[N+]=[N-])ccc32)CCN(C(=O)CCNC(=O)Cc2ccc(C(=O)c3ccccc3)cc2)CC1 | 56.1 µM | 26.5 µM | > 57.7 µM | 45.5 µM | > 81.5 µM | > 67.5 µM | 39.9 µM | > 85.7 µM | 81 µM | > 82.4 µM | 61.4 µM | – | – | – | – | – | – | – | – | – |
| COc1ccc2c(c1)-c1nc(=S)n(CCN(C)C)c3ccc([N+](=O)[O-])c(c13)N2 | 8.04 µM | 16.5 µM | 2.13 µM | 18.3 µM | 7.29 µM | 1.8 µM | 2.15 µM | 24.1 µM | 2.68 µM | 17.9 µM | 2.76 µM | – | – | – | – | – | – | – | – | – |
| Brc1ccc2[nH]cc(-c3csc(-c4c[nH]c5ccc(Br)cc45)n3)c2c1 | 5.6 µM | 8.19 µM | 3.43 µM | 6.32 µM | 3.93 µM | 3.49 µM | 3.26 µM | 5.1 µM | 3.38 µM | 6.34 µM | 3.4 µM | – | – | – | – | – | – | – | – | – |
| O=C(O[C@@H](/C=C/c1ccccc1)P1(=O)N(Cc2ccccc2)[C@@H]2CCCC[C@H]2N1Cc1ccccc1)c1ccccc1 | > 100 µM | > 100 µM | > 100 µM | > 100 µM | > 100 µM | > 100 µM | > 100 µM | 9.58 µM | 9.18 µM | 9.22 µM | 6.24 µM | – | – | – | – | – | – | – | – | – |
| N#Cc1ccnc(C(=O)N2CCCC2C(=O)O)c1 (centres undefined) | > 100 µM | > 100 µM | > 100 µM | > 100 µM | > 100 µM | > 100 µM | > 100 µM | > 100 µM | > 100 µM | > 100 µM | > 100 µM | – | – | – | – | – | – | – | – | – |
| O=C(CCl)Nc1ccc(C(=O)N/N=C/c2ccc(Cl)cc2)cc1 | 3.6 µM and 33.1 µM | 3.91 µM and 29.5 µM | 4.04 µM and 7.46 µM | 3.1 µM and 9.23 µM | 4.02 µM and 38.5 µM | 3.09 µM and 3.12 µM | 22.5 µM | 35.3 µM | 3.68 µM and 0.417 µM | 3.19 µM and 6.87 µM | 6.54 µM and 32.5 µM | 1.98 µM | 1.83 µM | 2 µM | 1.65 µM | 20 µM | 3.85 µM | 0.198 µM | 1.62 µM | 9.09 µM |
| C[C@@H](CCO)OC1OC(COC(=O)C(C)(C)C)C(OC(=O)C(C)(C)C)C(OC(=O)C(C)(C)C)C1OC(=O)C(C)(C)C (some centres undefined) | > 100 µM | > 100 µM | > 100 µM | 76.7 µM | > 100 µM | > 100 µM | 31.4 µM | > 100 µM | 25.9 µM | > 100 µM | 81.8 µM | – | – | – | – | – | – | – | – | – |
| COC(=O)c1ccc2cc(O)ccc2c1 | > 100 µM | > 100 µM | > 100 µM | > 100 µM | > 100 µM | > 100 µM | > 100 µM | > 100 µM | > 100 µM | > 100 µM | > 100 µM | – | – | – | – | – | – | – | – | – |
| CC1=CC(O)CC(C)(C)C1/C=C/C(C)=C/C=C/C(C)=C/C=C/C=C(C)/C=C/C=C(C)/C=C/C1=C(C)CC(O)CC1(C)C (centres undefined) | 78.4 µM | > 100 µM | > 100 µM | 58.4 µM | > 100 µM | 36.7 µM | > 100 µM | 41.4 µM | 30.1 µM | 56.9 µM | > 100 µM | – | – | – | – | – | – | – | – | – |
| Nn1nnc2ccccc21 | > 100 µM | > 100 µM | > 100 µM | > 100 µM | > 100 µM | > 100 µM | > 100 µM | > 100 µM | > 100 µM | > 100 µM | > 100 µM | – | – | – | – | – | – | – | – | – |
| CC(C)(C)[Si](C)(C)OC1CCOC1(O)c1ccccn1 (centres undefined) | > 100 µM | > 100 µM | > 100 µM | > 100 µM | > 100 µM | > 100 µM | > 100 µM | > 100 µM | > 100 µM | > 100 µM | > 100 µM | – | – | – | – | – | – | – | – | – |
| CC1=NN(c2cccc(Cl)c2)C2(C1=Cc1ccc(N(C)C)cc1)C(Cl)C(=O)N2c1nc2ccccc2s1 (centres undefined) | > 100 µM | > 100 µM | > 100 µM | > 100 µM | > 100 µM | > 100 µM | 41.8 µM | > 100 µM | > 100 µM | > 100 µM | > 100 µM | – | – | – | – | – | – | – | – | – |
| O=C1c2c(Br)sc(Br)c2[C@H]2OC(=S)N[C@@H]12 | 32.4 µM | 35 µM | 6.35 µM | 30.1 µM | 11.4 µM | 27 µM | 22.4 µM | 33.5 µM | 25 µM | 15.1 µM | 40.3 µM | – | – | – | – | – | – | – | – | – |
| C/C(=C\CO)CC[C@@H]1[C@@]2(C)CCCC(C)(C)[C@@H]2CC[C@@]1(C)O | 49.3 µM | 31.3 µM | 34.7 µM | 33.7 µM | 51.5 µM | 39.8 µM | 29.5 µM | 33.4 µM | 31 µM | 40 µM | 36.5 µM | – | – | – | – | – | – | – | – | – |
| CO[C@H](C)[C@](O)(C(=O)OCC1=CCN2CC[C@@H](O)[C@H]12)C(C)C | > 100 µM | > 100 µM | > 100 µM | > 100 µM | > 100 µM | > 100 µM | > 100 µM | > 100 µM | > 100 µM | > 100 µM | > 100 µM | – | – | – | – | – | – | – | – | – |
